In PMC5998989 (Pain Medicine: The Official Journal of the American Academy …, 2017):
“And” between values parts separate entries of the source, which are not always exact repeats. Identical values can stand only once. Blank lines part the entries; values can stand above or below the compound they belong to.

Tests used:
[1] = tested on: cannabinoid receptors / TRPV1 receptors; settings: cited from earlier work
healthy female subjects [2] = assay: Laser evoked potentials; type: in vivo, human; settings: for Dose at which the maximum postdose response was attained: LEP N2-P2 PtP, once daily multiple dosing; for Time to maximum response (percentage change in LEP N2-P2 PtP amplitudes): after dosing
healthy female subjects [3] = assay: VAS pain; type: in vivo, human; settings: all subjects
[4] = Plasma pharmacokinetics after multiple ascending once daily doses; type: in vivo, human
healthy female subjects [5] = assay: Safety and tolerability; type: in vivo, human
rats = settings: ref unpublished data; cited from earlier work
patients with PNP = settings: cited from earlier work

Compound: CCCCC/C=C\C/C=C\C/C=C\C/C=C\CCCC(=O)NCCO [AEA, N-arachidonoyl-ethanolamine]
- Potency toward cannabinoid receptors relative to that toward TRPV1 receptors [1]: about 10 times

Compound: O=C(Nc1ccccc1)C1CCN(C(=O)Oc2cccnc2)CC1 [ASP8477]
- Mean Difference (95% CI) vs placebo, LEP N2-P2 PtP amplitude, secondary analysis (healthy female subjects [2]; 100 mg day 21 vs placebo day 21, all subjects, session as a random effect): −1.58 (−3.30 to 0.15) µV
- Mean Difference (95% CI) vs placebo, LEP N2-P2 PtP amplitude, primary analysis (healthy female subjects [2]; 100 mg day 21 vs placebo day 21, all subjects, session as replications): −1.58 (−3.30 to 0.14) µV
- LS mean PtP (SE), LEP N2-P2 PtP amplitude, secondary analysis (healthy female subjects [2]; 100 mg, day 21, all subjects, linear mixed regression model with session as a random effect): 29.66 (2.80) µV
- LS mean PtP (SE), LEP N2-P2 PtP amplitude, primary analysis (healthy female subjects [2]; 100 mg, day 21, all subjects, linear mixed regression model with session as replications): 28.31 (2.75) µV
- Dose at which the maximum postdose response was attained (healthy female subjects [2]): 20 mg
- Time to maximum response (percentage change in LEP N2-P2 PtP amplitudes) (healthy female subjects [2]): approximately one to four
- Day 14 predose response for LEP N2-P2 PtP amplitudes, % of the maximum response (healthy female subjects [2]; all subjects): 4% and 8%
- Day 21 predose response for LEP N2-P2 PtP amplitudes, % of the maximum response (healthy female subjects [2]; all subjects): 19%
- LEP N2-P2 PtP cumulative magnitude of response (AUC) (healthy female subjects [2]; all subjects): approximately 200
- LEP N2-P2 PtP amplitudes, overall mean (healthy female subjects [2]; all subjects, across all doses): 28.51 µV
- Mean difference vs placebo in LEP N2-P2 PtP amplitudes (healthy female subjects [2]; all subjects, across all doses): –1.41 µV
- Day 21 predose effect for LEP N2-P2 PtP amplitudes, % of the maximum achievable effect (healthy female subjects [2]; capsaicin-positive subgroup): 40%
- LEP N2-P2 PtP cumulative magnitude of response (AUC) (healthy female subjects [2]; capsaicin-positive subgroup, day 7): approximately 400
- LEP N2-P2 PtP cumulative magnitude of response (AUC) (healthy female subjects [2]; capsaicin-positive subgroup, day 14): ~420
- LEP N2-P2 PtP cumulative magnitude of response (AUC) (healthy female subjects [2]; capsaicin-positive subgroup, day 21): ~470
- Day 14 predose response for VAS pain scores, % of the maximum response (healthy female subjects [3]): 23%
- Day 21 predose response for VAS pain scores, % of the maximum response (healthy female subjects [3]): 4%
- Mean difference vs placebo in VAS pain score (healthy female subjects [3]; all doses): –2.55%
- Mean VAS pain score (healthy female subjects [3]; all three doses (overall)): 42.23%
- Dose proportionality of PK parameters ([4]; between 20 mg and 100 mg, multiple ascending doses): more than dose-proportional
- Absorption following oral dosing ([4]; oral dosing): rapidly absorbed
- Median tmax (range) ([4]; oral dosing, all doses): 2.1 to 4.1 h
- Tolerability (healthy female subjects [5]; ascending doses of 20 mg, 60 mg, and 100 mg once daily): well tolerated
- Subjects reporting a treatment-emergent adverse event (TEAE) (healthy female subjects [5]; during treatment, all doses): 83%
- TEAE disorientation, subjects (healthy female subjects [5]; during treatment, all doses): 8%
- TEAE disturbance in attention and illusion, subjects (healthy female subjects [5]; during treatment, all doses): 13%
- TEAE dry mouth, subjects (healthy female subjects [5]; during treatment, all doses): 21%
- TEAE fatigue, subjects (healthy female subjects [5]; during treatment, all doses): 29%
- TEAE headache, subjects (healthy female subjects [5]; during treatment, all doses): 29%
- TEAE memory impairment, subjects (healthy female subjects [5]; during treatment, all doses): 13%
- TEAE vertigo, subjects (healthy female subjects [5]; during treatment, all doses): 29%
- Effects in nonclinical toxicity studies (rats): effects observed on male fertility
- Difference between ASP8477 and placebo (patients with PNP; double-blind randomized withdrawal period): no difference
- Patients reporting a reduction of ≥30% in their pain (patients with PNP; single-blind period, 30 mg BID): ~60%

- PK parameters of 60 mg compared with 30 mg ([4]; once daily for seven days): approximately doubled
Compound: CNCC[C@H](Oc1cccc2ccccc12)c1cccs1 [duloxetine, reference compound]
- Dose at which the maximum postdose response was attained (healthy female subjects [2]): 30 mg
- Time to maximum response (percentage change in LEP N2-P2 PtP amplitudes) (healthy female subjects [2]): approximately one to four
- Day 14 predose response for LEP N2-P2 PtP amplitudes, % of the maximum response (healthy female subjects [2]; all subjects): 26%
- Day 21 predose response for LEP N2-P2 PtP amplitudes, % of the maximum response (healthy female subjects [2]; all subjects): 44%
- LEP N2-P2 PtP amplitudes, overall mean (healthy female subjects [2]; all subjects, across all doses): 24.71 µV
- Mean difference duloxetine vs ASP8477 in LEP N2-P2 PtP amplitudes (healthy female subjects [2]; all subjects, across all doses): –3.80 µV
- Mean difference vs placebo in LEP N2-P2 PtP amplitudes (healthy female subjects [2]; all subjects, across all doses): –5.21 µV
- Day 14 predose effect for LEP N2-P2 PtP amplitudes, % of the maximum achievable effect (healthy female subjects [2]; capsaicin-positive subgroup): 40%
- Day 21 predose effect for LEP N2-P2 PtP amplitudes, % of the maximum achievable effect (healthy female subjects [2]; capsaicin-positive subgroup): around 40%
- Time to maximum effect (healthy female subjects [2]; postdose): five
- Day 14 predose response for VAS pain scores, % of the maximum response (healthy female subjects [3]): 17%
- Day 21 predose response for VAS pain scores, % of the maximum response (healthy female subjects [3]): 10%
- TEAE fatigue, subjects (healthy female subjects [5]; during treatment, all doses): 29%
- TEAE nausea, subjects (healthy female subjects [5]; during treatment, all doses): 29%
